Results: patent US6476009B1, “Method for control and treatment of acquired immunodeficiency syndrome (AIDS)” (priority 1985, dated 2002)
“And” between values parts separate entries of the source, which are not always exact repeats. Identical values can stand only once.

Legend:
[1] = molecular target: HTLV-III reverse transcriptase (Human immunodeficiency virus type 1 group M subtype B, UniProt P03366); test: Purified HTLV-III reverse transcriptase assay; format: biochemical
Experimental: Source of HTLV-III Reverse Transcriptase and Assay Conditions. HTLV-III reverse transcriptase used in these studies was purified by sequential chromatography on DEAE, cellulose, phosphocellulose and hydroxyapatite. The purified anzyme was stored in 50 mM Tris-HC1 (pH 7.5), 1 mM dithiothreitol (DTT), 0.01% Triton X-100 and 20% glycerol. Reverse transcriptase assays were carried out in a reaction mixture (50 μl)containing 50 mM Tris-HC1 (pH 7.5), 5 mM DTT, 100mM potassium chloride, 0.01% Triton X-100 or NP40, 10 μg/ml (dT)15.(A)n as template primer and/^3H/deoxythymidine triphosphate (/^3H/-dTTP). The reaction mixture was incubated for 1 hour at 37°, and the reaction was stopped by the addition of 50 μg of yeast tRNA and 2 ml of 10% solution of trichloroacetic acid (TCA) containing 1 mM sodium pyrophosphate. The samples were filtered on millipore filters (0.45 μm), washed first with 5% TCA solution (5 times) and then with 2 ml of 70% ethanol. The filters were dried under a heat lamp, scintillation fluid was added and the radioactivity counted in a β-scintillation counter.
The effect of foscarnet on purified HTLV-III reverse transcriptase (RT) was assayed as a function of drug concentration.

[2] = Steady-state serum level in patients on constant intravenous infusion; settings: constant intravenous infusion for 1-4 weeks, most cases
Experimental: These patients were given foscarnet intravenously by constant infusion for 1-4 weeks and, at steady state, serum levels of foscarnet reached in most cases were 300-450 μM (100-150 μg/ml).

cytomegalovirus (CMV) = test: Clinical effect of infusion in patients with severe herpesvirus infections; format: in vivo; settings: intravenous constant infusion 1-4 weeks, severe herpesvirus infections mainly CMV
[3] = tested on: labial and genital herpes; test: Clinical evaluation of topical formulation against labial and genital herpes; format: in vivo
Uninfected H9 cells = test: Growth inhibition of uninfected H9 cells; format: cell-based; settings: Homo sapiens, 750 μM foscarnet
variety of cell types = test: Cell growth inhibition in a variety of cell types; format: cell-based
HTLV-III = test: Replication of HTLV-III in H9 cells (RT activity readout); format: cell-based; settings: Human immunodeficiency virus 1, 144 h
Experimental: HTLV-III Infection of H9 Cells. H9 cells constitute a human cell line that can be chronically infected with HTLV-III virus. (Science 1984; 224: 497-500). H9 cells were treated with polybrene (2 μg/ml) for 30 min. at 37° C., washed free of polybrene and infected with 2×10^8 HTLV-III virus particles per 4×10^5 H9 cells. […] The cultures were analyzed for HTLV-III reverse transcriptase activity as described above.
The effect of foscarnet on the replication of HTLV-III in H9 cells was determined as a function of both foscarnet concentration and time of incubation.

## O=C(O)P(=O)(O)O [foscarnet, trisodium phosphonoformate hexahydrate]
[1]
  IC50: 0.1 to 2 µM
[1]; with respect to substrate and template
  mode of inhibition of reverse transcriptase: noncompetitive with respect to substrate and uncompetitive with respect to template
[2]
  steady state serum level: 300-450 μM and 100-150 μg/ml
Cytomegalovirus (CMV)
  clinical effect in treated patients: clear indications of a beneficial effect
[3]
  clinical activity and tolerability: active and well tolerated
Uninfected H9 cells
  inhibition at 750 µM: < 50%
Variety of cell types; stationary cells treated with 10 mM foscarnet
  cell growth after removal of the drug: normal cell growth can be seen
Variety of cell types; variety of cell types
  reversibility of cell growth inhibition: reversible
Variety of cell types; variety of cell types, read-out: concentration inhibiting cell growth by 50%
  IC50: ~1000 µM
HTLV-III; 50 μM foscarnet, 6 days of incubation
  inhibition at 50 µM: 50%
HTLV-III; 300 μM foscarnet, six days of incubation
  inhibition at 300 µM: > 95%
